Assay results taken from patent publication US8470806B2, “Perhexiline for treating chronic heart failure” (Heart Metabolics Limited, priority 2004, dated 2013).

Assays:
patients with CHF [1] = assay: Cardiopulmonary exercise test (treadmill, Weber protocol, respiratory gas analysis); format: in vivo, human; conditions: for VO2max: mean ± SEM
Description: An embodiment of the invention will now be described by way of example only wherein a double-blind, randomised, placebo-controlled study was undertaken in order to investigate the effects of perhexiline on chronic heart failure. 56 patients with CHF were recruited and all provided written informed consent. Entry criteria were as follows: left ventricular ejection fraction (LVEF) <40%, optimally medicated heart failure with New York Heart Association (NYHA) Class II-III symptoms. Cardiopulmonary exercise testing with respiratory gas analysis, completion of the Minnesota Living with Heart Failure Questionnaire (MLHFQ) and 2-D echocardiography were performed at baseline on all patients. Incremental exercise testing with assessment of respiratory gas exchange was performed on a treadmill using the Weber protocol. Breath by breath respiratory gases were measured during exercise using a Pulmolab EX670 system mass spectrometer which was calibrated before every study. Raw data were averaged to 30 second intervals and oxygen consumption during peak exercise was obtained (VO2 max; ml/kg/min). Electrocardiograms and blood pressure were monitored throughout. Exercise was terminated at the subject's request due to fatigue or breathlessness. […] The primary end-point for this study was pre-defined as VO2 max with the following secondary endpoints: MLHFQ score, LVEF, E:EA ratio, resting, low dose and high dose mean PSV during stress echocardiography and PCr t½. Therapy randomization of the ischemic and non-ischemic groups occurred separately but with similar protocols in order to allow for pre-hoc analysis of the primary endpoint in each group. […] Data were analyzed with SPSS 11.5 for Windows® and expressed as mean±standard error of mean. ANCOVA using baseline values as covariates was performed to test for significance of differences seen in the perhexiline vs. placebo groups following treatment.

[2] = tested on: patients with CHF (ischemic group); assay: Tissue Doppler / dobutamine stress echocardiography, ischemic group; format: in vivo, human; set-up: Mean PSV (15 segments): unit not given beside the values
Experimental: Tissue Doppler assessment of the left ventricle was performed at rest and analysed off-line using Echopac software in order to determine regional myocardial PSV from 15 left ventricular segments described in detail elsewhere (20). These segments were selected to include all areas supplied by the three major coronary arteries and for the greatest reproducibility for acquisition of PSV (21). (See FIG. 4) Following resting echocardiography dobutamine infusion was commenced via a syringe driver and incremented at 3 minute intervals from 5 mcg/kg/min to 10, 20, 30 and 40 mcg/kg/min. Digital loops of 15 views outlined above were stored at 90 seconds of each stage. Up to 1 mg of atropine was given if the hemodynamic response was submaximal. Electrocardiograms and blood pressure were monitored at each stage. End-points for termination of the test were attainment of ≧85% of the target heart rate, evidence of ischemia, or severe side effects from dobutamine. Data from all stages were analysed off-line as with the resting images. PSV data are expressed as velocity at rest, low dose dobutamine infusion ([…]) and peak dose dobutamine infusion (the last infusion stage before infusion terminated, which may include the addition of atropine).

patients with CHF [3] = assay: Minnesota Living with Heart Failure Questionnaire (MLHFQ); format: in vivo, human; conditions: for Minnesota living with heart failure questionnaire score: higher score = poorer quality of life
Experimental: A standard 21-question MLHFQ was employed to determine if perhexiline affected patient quality of life. This is a well validated measure of symptomatology in heart failure (17) and includes questions to assess the ability to perform activities of daily living as well as questions gauging the severity of symptoms due to heart failure. Each question was scored out of 5. The sum of the scores were calculated where a higher score indicated a poorer quality of life. All patients completed the questionnaires alone and without assistance. […] The primary end-point for this study was pre-defined as VO2 max with the following secondary endpoints: MLHFQ score, LVEF, E:EA ratio, resting, low dose and high dose mean PSV during stress echocardiography and PCr t½. Therapy randomization of the ischemic and non-ischemic groups occurred separately but with similar protocols in order to allow for pre-hoc analysis of the primary endpoint in each group. […] Data were analyzed with SPSS 11.5 for Windows® and expressed as mean±standard error of mean. ANCOVA using baseline values as covariates was performed to test for significance of differences seen in the perhexiline vs. placebo groups following treatment.

patients with CHF [4] = assay: Safety and tolerability in the 8-week study (side effects, corrected QT, liver function, neuropathy)
Experimental: Following baseline studies, patients were randomized in a double-blind fashion to receive either perhexiline (n=28) or placebo (n=28) 100 mg twice daily. Blood was obtained at 1, 4, and 8 weeks after initiation of the drug for measurements of serum perhexiline levels with subsequent dose titration in order to prevent toxicity. Dose adjustments were advised as per a standard protocol by an unblinded physician. Identical dosage adjustments were also made for randomly allocated placebo-treated patients by the unblinded observer in order to ensure blinding of the investigators was maintained. After 8 weeks of treatment, patients were re-evaluated as above.

patients with CHF [5] = assay: NYHA class before and after treatment; format: in vivo, human
Experimental: 56 patients with CHF were recruited and all provided written informed consent. Entry criteria were as follows: left ventricular ejection fraction (LVEF) <40%, optimally medicated heart failure with New York Heart Association (NYHA) Class II-III symptoms. Cardiopulmonary exercise testing with respiratory gas analysis, completion of the Minnesota Living with Heart Failure Questionnaire (MLHFQ) and 2-D echocardiography were performed at baseline on all patients.

Serum perhexiline levels = format: in vivo; conditions: human
patients with CHF [6] = assay: Resting echocardiography (LVEF, volumes, long-axis PSV, E:EA ratio); format: in vivo, human; conditions: for Long axis function: PSV of lateral mitral valve annulus
Experimental: Echocardiography was performed with patients in the left lateral decubitus position using a Vingmed System V echocardiographic machine and a 2.5 MHz transducer. Images were stored digitally. Resting scans were acquired using standard echocardiographic windows for LVEF, transmitral valve Doppler, and resting tissue Doppler. […] Left ventricular volumes for calculation of LVEF were obtained using biplane echocardiography and the modified Simpson's formula. Volumes were averaged over 3 beats. In addition, on-line tissue Doppler peak systolic velocity (PSV) of the lateral mitral valve annulus was obtained as a reflection of left ventricular long-axis function. In theory, improving metabolic efficiency would also lead to an improvement in diastolic function of the left ventricle as energy is also required for cardiac relaxation. The ratio of peak E wave from transmitral valve Doppler vs. the E wave from tissue Doppler of the lateral mitral valve annulus (E:EA ratio) is a sensitive indicator of left ventricular end diastolic pressure (19). […] The primary end-point for this study was pre-defined as VO2 max with the following secondary endpoints: MLHFQ score, LVEF, E:EA ratio, resting, low dose and high dose mean PSV during stress echocardiography and PCr t½. Therapy randomization of the ischemic and non-ischemic groups occurred separately but with similar protocols in order to allow for pre-hoc analysis of the primary endpoint in each group. […] Data were analyzed with SPSS 11.5 for Windows® and expressed as mean±standard error of mean. ANCOVA using baseline values as covariates was performed to test for significance of differences seen in the perhexiline vs. placebo groups following treatment.

[7] = Post, after 8 weeks of treatment
[8] = all patients of the perhexiline group, 8 weeks

C1CCC(C(CC2CCCCN2)C2CCCCC2)CC1 (centres unmarked) [Perhexiline, 2-(2,2-dicyclohexylethyl)piperidine]
Exercise Time (patients with CHF [1]; [7]): 12.3 ± 1.1 min
VO2max (patients with CHF [1]; [7]): 18.8 ± 1.1 mL/min/kg
Exercise Time (patients with CHF [1]; Pre (baseline)): 10.5 ± 1.2 min
VO2max (patients with CHF [1]; Pre (baseline), perhexiline group): 16.1 ± 0.6 mL/min/kg
increase in VO2 max following treatment (patients with CHF [1]; [8]): 2.7 ± 0.8 mL/min/kg
increase in VO2 max following treatment (relative) (patients with CHF [1]; [8]): 16.7%
increase in VO2 max (patients with CHF [1]; ischemic group, 8 weeks): 2.9 ± 1.2 mL/min/kg
increase in VO2 max (patients with CHF [1]; non-ischemic group, 8 weeks): 2.5 ± 0.4 mL/min/kg
Mean PSV (15 segments) ([2]; Low Dose dobutamine, Post): 5.0 ± 0.5
Mean PSV (15 segments) ([2]; Low Dose dobutamine, Pre): 4.7 ± 0.3
Mean PSV (15 segments) ([2]; Peak Dose dobutamine, Post): 8.2 ± 0.8
Mean PSV (15 segments) ([2]; Peak Dose dobutamine, Pre): 6.6 ± 0.5
Mean PSV (15 segments) ([2]; Rest, Post): 3.8 ± 0.2
Mean PSV (15 segments) ([2]; Rest, Pre): 3.3 ± 0.2
increase in peak dose PSV ([2]; ischemic cohort, peak dose dobutamine, 8 weeks): 24%
increase in resting mean PSV following treatment ([2]; ischemic cohort, rest, 8 weeks): 15%
reduction of MLHFQ scores following treatment (patients with CHF [3]; 8 weeks): 24.4%
Minnesota living with heart failure questionnaire score (patients with CHF [3]; Post, after 8 weeks): 34 ± 5
Minnesota living with heart failure questionnaire score (patients with CHF [3]; Pre (baseline)): 45 ± 5
deaths during the study period (patients with CHF [4]; 8-week course): no deaths in either group
Corrected QT Interval (patients with CHF [4]; Post, after 8 weeks): 413 ± 13 ms
Corrected QT Interval (patients with CHF [4]; Pre (baseline)): 413 ± 11 ms
Side effects (patients with CHF [4]; perhexiline group, 8-week course): restricted to transient nausea and dizziness during the first week of treatment
abnormal liver function tests or neuropathy (patients with CHF [4]; with close serum level monitoring and titration): None of the patients in this study developed abnormal liver function tests or neuropathy
NYHA Class (patients with CHF [5]; Post, after 8 weeks): 1.9 ± 0.2^+
NYHA Class (patients with CHF [5]; Pre (baseline)): 2.4 ± 0.1
concentration at 1 week (Serum perhexiline levels; Week 1, 100 mg twice daily with dose titration): 570 ± 190 ng/mL
concentration at 4 weeks (Serum perhexiline levels; Week 4, 100 mg twice daily with dose titration): 670 ± 200 ng/mL
concentration at 8 weeks (Serum perhexiline levels; Week 8, 100 mg twice daily with dose titration): 430 ± 120 ng/mL
increase of mean LVEF following treatment (patients with CHF [6]; 8 weeks): 9.9 ± 2.0 absolute percentage points
relative increase of mean LVEF (patients with CHF [6]; 8 weeks): 42%
E:EA Ratio (patients with CHF [6]; Post, after 8 weeks): 6.5 ± 0.9
Left ventricular ejection fraction (patients with CHF [6]; Post, after 8 weeks): 34 ± 2 %
Left ventricular end-diastolic volume (patients with CHF [6]; Post, after 8 weeks): 212 ± 9 mL
Left ventricular end-systolic volume (patients with CHF [6]; Post, after 8 weeks): 140 ± 8 mL
Long axis function (patients with CHF [6]; Post, after 8 weeks): 7.2 ± 0.6^|| cm/s
E:EA Ratio (patients with CHF [6]; Pre (baseline)): 8.6 ± 0.6
Left ventricular ejection fraction (patients with CHF [6]; Pre (baseline)): 24 ± 1%
Left ventricular end-diastolic volume (patients with CHF [6]; Pre (baseline)): 232 ± 11 mL
Left ventricular end-systolic volume (patients with CHF [6]; Pre (baseline)): 176 ± 8 mL
Long axis function (patients with CHF [6]; Pre (baseline)): 5.8 ± 0.4 cm/s
